Laboratory results: article PMC8709388, “In Search of Small Molecules That Selectively Inhibit MBOAT4” (Molecules, 2021)
Like-named read-outs stand apart in the source and are kept apart here.

Columns and labels:
GOAT = conditions: read-out: lit. IC50, cited from earlier work
ghrelin production = tested on: ghrelin production; parameters: method as in earlier work; conditions: cited from earlier work
mouse GOAT = biological target: T1, mouse GOAT (Mus musculus, UniProt P0C7A3); experiment: Acyltransferase assay: inhibition of proghrelin octanoylation by GOAT in sf9 membrane fractions; format: biochemical; conditions: for IC50: sf9 membranes containing mouse GOAT, [3H]octanoyl CoA, proghrelin8His, read-out: IC50 (GOAT, membrane fraction, in-house); for GOAT inhibition in vitro (in words): membrane fractions
T1 construct: made in house; host or cells: sf9 insect cells (baculovirus, pFastBac1-mouseGOAT); total membrane fraction, not purified
T1 sequence (P0C7A3 1-435): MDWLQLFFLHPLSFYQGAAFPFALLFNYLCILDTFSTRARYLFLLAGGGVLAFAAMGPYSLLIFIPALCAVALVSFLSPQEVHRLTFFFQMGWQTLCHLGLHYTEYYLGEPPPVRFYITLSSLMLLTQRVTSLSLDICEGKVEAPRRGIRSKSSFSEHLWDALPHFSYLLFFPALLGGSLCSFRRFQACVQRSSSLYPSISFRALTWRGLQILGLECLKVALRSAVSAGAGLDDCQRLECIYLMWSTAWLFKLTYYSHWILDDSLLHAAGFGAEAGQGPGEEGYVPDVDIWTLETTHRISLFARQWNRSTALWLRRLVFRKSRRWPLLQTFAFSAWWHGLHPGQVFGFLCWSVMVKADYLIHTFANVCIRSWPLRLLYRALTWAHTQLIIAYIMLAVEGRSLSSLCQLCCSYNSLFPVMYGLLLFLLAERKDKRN
Method: pFastBac1-mouseGOAT and pGEX-GST-proGhrelin8His plasmid encoding for mouse proghrelin, fused to GST with TEV cleavage site to release proghrelin moiety, was a kind gift from the Brown and Goldstein laboratory. The BL21Gold E. coli chemically competent cells were transformed with the pGEX-GST-proGhrelin8His plasmid and selected on agar plates with ampicillin. A few colonies were used to inoculate 50 mL LB, and cultures were grown overnight at 37 °C. The next morning, 10 mL of overnight culture was used to inoculate 1L LB. A total of 4 flasks with 1L LB each were inoculated with 10 mL of the overnight culture, and bacterial cultures were grown at 37 °C until they reached OD600 ~ 0.6. The cultures were chilled on ice for 30 min and then 0.25 mM of IPTG was added to each culture. The cultures were then moved back to a shaker set to 18 °C and incubated overnight. Cells were harvested and resuspended in 200 mL buffer containing 25 mM Tris-HCl pH 8.0, 150 mM NaCl, 1 mM EDTA and 0.5 mg/mL lysozyme. The cell suspension was sonicated, and cell debris was removed by centrifugation. The soluble fraction was passed through glutathione resin by gravity. The resin was washed with 75 mL of lysis buffer without lysozyme. The GST-proGhrelin8His protein was eluted with lysis buffer without lysozyme, supplemented with 15 mM reduced glutathione, GSH. About 50 mg of target protein, as evaluated by SDS-PAGE, was eluted. The eluate was supplemented with 1 mM DTT and about 7.5 mg of recombinant GST-TEV protease (see below) was added. The solution was incubated at 16 °C overnight to allow complete release of proghrelin8His from GST. Prior to Ni-NTA chromatography, 5 mM CaCl2 was added, and the solution was spun down at 4000× g for 10 min. After elution from Ni-NTA resin, protein solution was dialyzed against buffer containing 10 mM Tris-HCl pH 8.5, 50 mM NaCl, 10% glycerol and 0.01% CHAPS using 3 kDa cutoff membrane with 3 buffer exchanges. The protein was quantified by absorbance at A280 and qualified by SDS-PAGE.
The baculovirus expression of mouse GOAT. DH10Bac E. coli strain (ThermoFisher, Waltham, MA, USA) was transformed with pFastBac1-mouseGOAT plasmid, and Bacmid DNA from 12 white colonies was analyzed by DNA sequencing and PCR reaction. All clones were transfected to sf9 cells and level of mGOAT expression was compared between clones from cells producing P2. The clone with the highest mGOAT expression level was used to produce P3. For membrane isolation, sf9 cells were seeded at 2–4 × 10^6 /mL in total 1 L volume of sf-900 serum-free medium (ThermoFisher) and infected with P3 virus. At day 2 post-infection, cells were harvested and resuspended in 40 mL of buffer containing 50 mM NaPi pH 7.2, 150 mM NaCl, 1 mM EDTA, 100 μM bis (4-nitrophenyl) phosphate, 2.5 μg/mL aprotinin, 10 μg/mL leupeptin, 10 μg/mL pepstatin A. Cell suspension was briefly sonicated and cell debris was removed by centrifugation at 3000× g for 10 min. Membrane fraction was collected from supernatant by centrifugation at 100,000× g for 1 h. Membrane pellet was resuspended in storage buffer (50 mM NaPi pH 7.2, 150 mM NaCl and 10% glycerol) and kept at −80 °C. Acyltransferase assay: The assay conditions included per 50 μL reaction: 50 μg of total sf9 membranes, various (for modality experiment) or fixed (for IC50) concentrations of recombinant proghrelin8His peptide and various concentrations of tested compound (for IC50), 100 μM palmitoyl CoA, 50 mM HEPES pH 7.0 and 1 μM [^3H] octanoyl CoA (~5.5 dpm/fmol—American Radioactive Chemicals). After incubation of the reaction mixture at 37C for 10 min, tubes were placed on ice and 10 μL of 1M HCl was added to each tube. Following the addition of 740 μL of cold quench buffer (50 mM NaPi pH 7.4, 10 mM Imidazole, 150 mM NaCl, 100 μM bis (4-nitrophenyl) phosphate, 1 mM phenylmethylsulfonyl fluoride and 0.1% Triton), 0.2 mL of 50% Ni-NTA slurry was added to each reaction. […]

SMILES	IC50 (GOAT; Eli Lilly compound) [nM]	adverse side effects (ghrelin production; at doses that inhibited ghrelin production)	ghrelin production in vivo (ghrelin production)	oral bioavailability (ghrelin production)	IC50 (mouse GOAT) [nM]	IC50 (GOAT; Boehringer Ingelheim compound) [nM]	GOAT inhibition in vitro (in words) (mouse GOAT)
Cc1nc(Cl)nc(N)c1CCC1CCN(C(=O)[C@H](C)NC(=O)c2ccnn2C)CC1 [compound 5]	57	did not cause observable adverse side effects	inhibited ghrelin production in vivo	orally bioavailable	88	–	–
CNC(=O)c1cccc(Cc2c(C)nc3nonc3c2N)n1 [compound 6, reference compound]	–	–	–	–	64	0.24	–
CCCCOCC(=O)N1CCC(CCc2c(C)nc3nonc3c2N)CC1 [compound 10, 1-(4-(2-(7-amino-5-methyl-[1,2,5]oxadiazolo[3,4-b]pyridin-6-yl)ethyl)piperidin-1-yl)-2-butoxyethan-1-one]	–	–	–	–	63	–	as potently as did 5 and 6
Cc1nc2nonc2c(N)c1CCC1CCN(C(=O)[C@H](C)NC(=O)c2ccnn2C)CC1 [compound 11, (S)-N-(1-(4-(2-(7-amino-5-methyl-[1,2,5]oxadiazolo[3,4-b]pyridin-6-yl)ethyl)pip-eridin-1-yl)-1-oxopropan-2-yl)-1-methyl-1H-pyrazole-5-carboxamide]	–	–	–	–	84	–	as potently as did 5 and 6
